Values quoted from earlier work, collected in patent publication US20060150828A1, “Dried infant cereal compositions” (Beech-Nut Nutrition Corporation, priority 2005, published 2006).

Details: storage at 37° C., precooked whole wheat flour containing the iron salt

| Substance | pentane formation (fat oxidation) |
| --- | --- |
| ferrous sulfate | rapidly generated pentane |
| ferrous gluconate | rapidly generated pentane |
